Measurements taken from article PMC5456363 (PLoS ONE, 2017).
Several values for one entry are separate records, joined by “and”; a condition that tells them apart may be missing. Identical values can stand only once. Non-standard residues stand in square brackets, D forms with d. Residues, ends and D or L forms follow the SMILES beside them. *: point of attachment. Orn(α-tetramethylguanidino) = CN(C)C(=N[C@@H](CCCN)C(=O)*)N(C)C

What was measured:
[1] = Peptide stability in commercial serum (CS); type: in vitro ADME, mouse
Method: (§1) All stability tests were performed at least in triplicates.

[2] = Peptide stability in activated serum (AS); type: in vitro ADME, CD-1 mice
Method: as §1

[3] = Peptide stability in EDTA plasma (EP); type: in vitro ADME, CD-1 mouse
Method: as §1

[4] = Peptide stability in direct serum (DS); type: in vitro ADME, CD-1 mice
Method: as §1

[5] = Peptide stability in heparin plasma (HP); type: in vitro ADME, CD-1 mouse
Method: as §1

[6] = set-up: method as in PMID 27067364; conditions: 25% aqueous commercial serum; cited from earlier work
[7] = Peptide stability in fresh blood taken by cardiac puncture into a syringe containing the peptide (blood, B); type: in vitro ADME, CD-1 mice
Method: as §1

[8] = Stability and metabolites across fresh blood, serum and plasma (all six matrices); conditions: fresh blood, serum, and plasma
Method: Aqueous peptide solutions (3 g/L) were filled in a sterile syringe (1 mL, Dispomed Witt oHG, Gelnhausen, Deutschland) through the front end, the stainless-steel needle was attached, and blood (200 to 300 μL) was collected via cardiac puncture to obtain a peptide concentration of approximately 31,5 μmol/L. The syringe was carefully disconnected from the needle and sealed while keeping the needle in the heart. A second empty syringe was attached to the needle and 0.5 to 0.8 mL blood were collected. In parallel, the sealed syringe was gently shaken for one minute to mix the peptide solution with blood and further incubated on a Stuart Rotator SB3 (Barloworld, Scientific LTD, Stone, Staffordshire, U.K.) placed in an incubator at 37°C. […] The plasma sample designated as “blood” (B) was precipitated with trichloroacetic acid (TCA), as described below. Blood collected in the second syringe was transferred to a polypropylene tube (Eppendorf AG, Hamburg, Germany) and a BD Microtainer® serum separator tube (SST; Becton, Dickinson and Company). Polypropylene tubes were centrifuged immediately (12,000 x g, 2 to 4 min) to obtain “direct serum” (DS) as supernatant, whereas the serum separator tubes were incubated (room temperature, 1 h), centrifuged (12,000 x g, 2 min), and collected as “activated serum” (AS). Pooled mouse serum was purchased from PAA Laboratories GmbH (Pasching, Austria) and pooled CD-1 mouse plasma containing K2EDTA or lithium heparin were obtained from Innovative Research (Novi, MI, USA).
Peptides were mixed with serum or plasma to a final concentration of 31.5 μmol/L and incubated (37°C, 750 rpm; Thermomixer, Eppendorf AG, Hamburg, Germany). Aliquots (20 or 40 μL) taken after 0 and 60 min (0, 10 and 30 min for Api88) were mixed with TCA to obtain a final concentration of 3% (w/v) and incubated on ice (10 min). After centrifugation (12,000 x g, 5 min), the supernatant was neutralized with sodium hydroxide (1 mol/L) and stored at −20°C. Samples were analyzed by RP-HPLC on a Jupiter C18-column (internal diameter: 2 mm, length: 150 mm, particle size: 5 μm, pore size: 30 nm) using a linear aqueous acetonitrile gradient containing TFA (0.1%, v/v) as ion pair reagent. Peptides were detected by recording the absorbance at 214 nm and quantified by their peak areas relative to the initial peak areas (0 min). All stability tests were performed at least in triplicates.
Metabolites were identified on an Agilent 1100 LC system (Agilent Technologies, Santa Clara, CA, USA) coupled on-line via a UV-detector (absorbance recorded at 214 nm) to the electrospray ionization source on an ion trap mass spectrometer (ESI-IT-MS, Esquire HCT, Bruker Daltonics GmbH, Bremen, Germany). Samples were separated on an Aqua C18-column (inner diameter: 2 mm, length: 150 mm, particle size: 3 μm, pore size: 12.5 nm, Phenomenex; column temperature: 60°C) at a flow rate of 0.2 mL/min using a linear gradient of aqueous acetonitrile in the presence of formic acid (FA; 0.1%, v/v) as ion pair reagent. […] The ESI-IT-MS was operated in positive ion mode. Ionization was carried out at 365°C (source temperature) using nitrogen as curtain gas (40 psi) and dry gas (9 L/min). Mass spectra were acquired for an m/z range from 400 to 1300 at a scan rate of 8100 m/z-units per second in standard enhanced mode.

human α-thrombin [9] = molecular target: T1, human α-thrombin (Homo sapiens, UniProt P00734); assay: α-Thrombin stability assay; type: in vitro ADME
T1 construct: with human α-Thrombin for 0, 1, and 24 hours
Method: Supplementary file pone.0178943.s003.tif: S3 Fig Stability of Api88, Api137, and LVPR-Onc112 against human α-thrombin. Chromatograms recorded after incubation of Api88 (a), Api137 (b), or LVPR-Onc112 (c) with human α-Thrombin for 0, 1, and 24 hours (UV absorbance). […] (TIF) Click here for additional data file.
S1 Text. Method α-Thrombin stability assay.

[10] = in vitro, mouse serum; cited from earlier work
[11] = “direct serum” (DS): blood in polypropylene tubes centrifuged immediately; conditions: CD-1 mice, 37°C, up to 60 min
[12] = blood collected via cardiac puncture into a syringe containing the peptide solution (“blood”, B); conditions: CD-1 mice, 37°C, up to 60 min
[13] = pooled CD-1 mouse plasma containing lithium heparin (heparin plasma, HP); conditions: 37°C, up to 60 min
[14] = pooled CD-1 mouse plasma containing K2EDTA (EDTA plasma, EP); conditions: 37°C, up to 60 min
[15] = 25% aqueous commercial serum; conditions: cited from earlier work
[16] = “activated serum” (AS): serum separator tubes incubated (room temperature, 1 h), centrifuged; conditions: CD-1 mice, 37°C, up to 60 min
[17] = Pooled mouse serum (PAA Laboratories), commercial serum (CS); conditions: 37°C, up to 60 min
human α-thrombin [18] = assay: human α-thrombin; conditions: up to 24 hours

CC[C@H](C)[C@H](NC(=O)[C@@H](CCCNC(=N)N)NC(=O)[C@H](CCCNC(=N)N)NC(=O)[C@@H]1CCCN1C(=O)[C@@H]1CCCN1C(=O)[C@H](CCCNC(=N)N)NC(=O)[C@@H]1CCCN1C(=O)[C@H](CCCNC(=N)N)NC(=O)[C@@H]1CCCN1C(=O)[C@H](CC(C)C)NC(=O)[C@H](Cc1ccc(O)cc1)NC(=O)[C@@H]1CCCN1C(=O)[C@@H]1CCCN1C(=O)[C@H](CCCCN)NC(=O)[C@H](CC(=O)O)NC(=O)[C@@H](NC(=O)[C@H](CCCNC(=N)N)NC(=O)[C@H](Cc1ccc(O)cc1)NC(=O)[C@H](C)NC(=O)[C@H](C)N)C(C)C)C(=O)N[C@@H](Cc1ccc(O)cc1)C(=O)N[C@@H](CC(N)=O)C(=O)N[C@H](CCCNC(=N)N)C(N)=O [AAYR-Onc112, AAYRVDKPPYLPRPRPPRrIYNr-NH2] (H-AAYRVDKPPYLPRPRPPR[dR]IYN[dR]-NH2)
Onc112 released relative to initial prodrug ([1]; commercial serum, 1 h): 13 ± 2%
prodrug expected to be present in full serum ([1]; extrapolated from 25% serum data assuming three-fold faster degradation in full serum): 5%
Onc112 released relative to initial prodrug ([2]; 1 h): < 3%
Onc112 released relative to initial prodrug ([3]; 1 h): 40 ± 4%
Onc112 released relative to initial prodrug ([4]; 1 h): < 3%
Onc112 released relative to initial prodrug ([5]; 1 h): 35 ± 4%
Onc112 released from linker peptide [6]: 85%
Onc112 released relative to initial prodrug ([7]; blood, 1 h): < 3%
Overall stability [8]: Low
Sequential stability [8]: Blood = Plasma = Serum

CC[C@H](C)[C@H](NC(=O)[C@H](Cc1ccc(O)cc1)NC(=O)[C@@H](NC(=O)[C@@H]1CCCN1C(=O)[C@H](CCCNC(=N)N)NC(=O)[C@H](CC(N)=O)NC(=O)[C@H](CC(N)=O)NC(=O)[C@H](CCCN)N=C(N(C)C)N(C)C)C(C)C)C(=O)N1CCC[C@H]1C(=O)N[C@@H](CCCNC(=N)N)C(=O)N1CCC[C@H]1C(=O)N[C@@H](CCCNC(=N)N)C(=O)N1CCC[C@H]1C(=O)N1CCC[C@H]1C(=O)N[C@@H](Cc1c[nH]cn1)C(=O)N1CCC[C@H]1C(=O)N[C@@H](CCCNC(=N)N)C(=O)N[C@@H](CC(C)C)C(N)=O [Api88, gu-ONNRPVYIPRPRPPHPRL-NH2] ({Orn(α-tetramethylguanidino)}-NNRPVYIPRPRPPHPRL-NH2)
intact peptide remaining relative to time zero ([1]; commercial serum, 37°C, 30 min): fully degraded
remaining at 10 min, 31.5 μmol/L ([1]; mouse, commercial pooled serum, commercial serum, 37°C, 10 min, read-out: intact peptide remaining relative to time zero): 10 ± 2%
intact peptide remaining relative to time zero ([2]; 37°C, 30 min): fully degraded
remaining at 10 min, 31.5 μmol/L ([2]; CD-1, mouse, 37°C, 10 min, read-out: intact peptide remaining relative to time zero): 22 ± 5%
proteolytic cleavage by human α-thrombin (human α-thrombin [9]; after one hour): completely degraded
remaining at 10 min, 31.5 μmol/L ([3]; CD-1, mouse, pooled plasma containing K2EDTA, 37°C, 10 min, read-out: intact peptide remaining relative to time zero): 48 ± 4%
remaining at 0.5 h, 31.5 μmol/L ([3]; CD-1, mouse, pooled plasma containing K2EDTA, 37°C, 30 min, read-out: intact peptide remaining relative to time zero): 5 ± 3%
intact peptide remaining relative to time zero ([4]; 37°C, 30 min): fully degraded
remaining at 10 min, 31.5 μmol/L ([4]; CD-1, mouse, direct serum (supernatant of blood centrifuged immediately), 37°C, 10 min, read-out: intact peptide remaining relative to time zero): 11 ± 6%
remaining at 10 min, 31.5 μmol/L ([5]; CD-1, mouse, pooled plasma containing lithium heparin, 37°C, 10 min, read-out: intact peptide remaining relative to time zero): 77 ± 5%
remaining at 0.5 h, 31.5 μmol/L ([5]; CD-1, mouse, pooled plasma containing lithium heparin, 37°C, 30 min, read-out: intact peptide remaining relative to time zero): 36 ± 1%
half-life at 31.5 μmol/L ([7]; CD-1, mouse, fresh whole blood taken by cardiac puncture, indicated by the recovery after 10 min, read-out: half-life time in fresh mouse blood (converted)): ~1 h
remaining at 10 min ([7]; CD-1, mouse, fresh whole blood, blood, 37°C, 10 min, read-out: intact peptide remaining relative to time zero): 88 ± 14%
remaining at 0.5 h ([7]; CD-1, mouse, fresh whole blood, blood, 37°C, 30 min, read-out: intact peptide remaining relative to time zero): 30 ± 14%
half-life time in fresh mouse blood relative to that reported for serum ([7]; blood versus reported serum half-life): 30 fold
intact peptide remaining relative to time zero ([7]; blood, 37°C, 10 min): 88 ± 15%
Overall stability [8]: Low
Sequential stability [8]: Blood > Plasma > Serum

CC[C@H](C)[C@H](NC(=O)[C@H](Cc1ccc(O)cc1)NC(=O)[C@@H](NC(=O)[C@@H]1CCCN1C(=O)[C@H](CCCNC(=N)N)NC(=O)[C@H](CC(N)=O)NC(=O)[C@H](CC(N)=O)NC(=O)[C@H](CCCN)N=C(N(C)C)N(C)C)C(C)C)C(=O)N1CCC[C@H]1C(=O)N[C@@H](CCCNC(=N)N)C(=O)N1CCC[C@H]1C(=O)N[C@@H](CCCNC(=N)N)C(=O)N1CCC[C@H]1C(=O)N1CCC[C@H]1C(=O)N[C@@H](Cc1c[nH]cn1)C(=O)N1CCC[C@H]1C(=O)N[C@@H](CCCNC(=N)N)C(=O)N[C@@H](CC(C)C)C(=O)O [Api137, gu-ONNRPVYIPRPRPPHPRL-OH] ({Orn(α-tetramethylguanidino)}-NNRPVYIPRPRPPHPRL-OH)
remaining at 1 h, 31.5 μmol/L ([1]; commercial pooled serum, commercial mouse serum, 37°C, 1 h, 31.5 μmol/L, read-out: intact peptide remaining relative to time zero): 87 ± 9%
intact peptide remaining relative to time zero ([2]; 37°C, 1 h, 31.5 μmol/L): ≥ 94%
proteolytic cleavage by human α-thrombin (human α-thrombin [9]; after 24 h): remained mostly intact
intact peptide remaining relative to time zero ([3]; 37°C, 1 h, 31.5 μmol/L): ≥ 94%
intact peptide remaining relative to time zero ([4]; 37°C, 1 h, 31.5 μmol/L): ≥ 94%
remaining at 1 h, 31.5 μmol/L ([5]; CD-1, mouse, pooled plasma containing lithium heparin, 37°C, 1 h, 31.5 μmol/L, read-out: intact peptide remaining relative to time zero): 83 ± 2%
Overall stability [8]: High
Sequential stability [8]: Blood = Plasma = Serum
half-life time in mouse serum [10]: 6 h

AAYRVDKPPYLPRPRPPRrIYNr-NH2 (H-AAYRVDKPPYLPRPRPPR[dR]IYN[dR]-NH2; SMILES CC[C@H](C)[C@H](NC(=O)[C@@H](CCCNC(=N)N)NC(=O)[C@H](CCCNC(=N)N)NC(=O)[C@@H]1CCCN1C(=O)[C@@H]1CCCN1C(=O)[C@H](CCCNC(=N)N)NC(=O)[C@@H]1CCCN1C(=O)[C@H](CCCNC(=N)N)NC(=O)[C@@H]1CCCN1C(=O)[C@H](CC(C)C)NC(=O)[C@H](Cc1ccc(O)cc1)NC(=O)[C@@H]1CCCN1C(=O)[C@@H]1CCCN1C(=O)[C@H](CCCCN)NC(=O)[C@H](CC(=O)O)NC(=O)[C@@H](NC(=O)[C@H](CCCNC(=N)N)NC(=O)[C@H](Cc1ccc(O)cc1)NC(=O)[C@H](C)NC(=O)[C@H](C)N)C(C)C)C(=O)N[C@@H](Cc1ccc(O)cc1)C(=O)N[C@@H](CC(N)=O)C(=O)N[C@H](CCCNC(=N)N)C(N)=O)
fragment found [11]: 5–23 [Onc112]; VDKPPYLPRPRPPRrIYNr-NH2
fragment found [12]: 5–23 [Onc112]; VDKPPYLPRPRPPRrIYNr-NH2
fragment found [13]: 5–23 [Onc112]; VDKPPYLPRPRPPRrIYNr-NH2
fragment found [14]: 5–23 [Onc112]; VDKPPYLPRPRPPRrIYNr-NH2
fragment found [15]: Onc112
fragment found [16]: 5–23 [Onc112]; VDKPPYLPRPRPPRrIYNr-NH2
fragment found [17]: 5–23 [Onc112]; VDKPPYLPRPRPPRrIYNr-NH2

LVPRVDKPPYLPRPRPPRrIYNr-NH2 (H-LVPRVDKPPYLPRPRPPR[dR]IYN[dR]-NH2; SMILES CC[C@H](C)[C@H](NC(=O)[C@@H](CCCNC(=N)N)NC(=O)[C@H](CCCNC(=N)N)NC(=O)[C@@H]1CCCN1C(=O)[C@@H]1CCCN1C(=O)[C@H](CCCNC(=N)N)NC(=O)[C@@H]1CCCN1C(=O)[C@H](CCCNC(=N)N)NC(=O)[C@@H]1CCCN1C(=O)[C@H](CC(C)C)NC(=O)[C@H](Cc1ccc(O)cc1)NC(=O)[C@@H]1CCCN1C(=O)[C@@H]1CCCN1C(=O)[C@H](CCCCN)NC(=O)[C@H](CC(=O)O)NC(=O)[C@@H](NC(=O)[C@H](CCCNC(=N)N)NC(=O)[C@@H]1CCCN1C(=O)[C@@H](NC(=O)[C@@H](N)CC(C)C)C(C)C)C(C)C)C(=O)N[C@@H](Cc1ccc(O)cc1)C(=O)N[C@@H](CC(N)=O)C(=O)N[C@H](CCCNC(=N)N)C(N)=O)
fragment found [11]: LVPR-Onc112(4–23); RVDKPPYLPRPRPPRrIYNr-NH2, minor and 5–23 [Onc112]; VDKPPYLPRPRPPRrIYNr-NH2
fragment found [12]: LVPR-Onc112(4–23); RVDKPPYLPRPRPPRrIYNr-NH2 and 5–23 [Onc112]; VDKPPYLPRPRPPRrIYNr-NH2
fragment found [13]: LVPR-Onc112(4–23); RVDKPPYLPRPRPPRrIYNr-NH2, minor and 5–23 [Onc112]; VDKPPYLPRPRPPRrIYNr-NH2
fragment found [14]: LVPR-Onc112(4–23); RVDKPPYLPRPRPPRrIYNr-NH2, minor and 5–23 [Onc112]; VDKPPYLPRPRPPRrIYNr-NH2
fragment found [15]: Onc112
cleaved bond (human α-thrombin [18]): C-terminal to Arg4 in LVPR-Onc112
fragment found [16]: LVPR-Onc112(4–23); RVDKPPYLPRPRPPRrIYNr-NH2, minor and 5–23 [Onc112]; VDKPPYLPRPRPPRrIYNr-NH2
fragment found [17]: LVPR-Onc112(4–23); RVDKPPYLPRPRPPRrIYNr-NH2, minor and 5–23 [Onc112]; VDKPPYLPRPRPPRrIYNr-NH2
